{
  "source": "patent US4816560A",
  "about": "“Partially retro-inverted tuftsin analogues, method for the preparation thereof and pharmaceutical compositions containing them” (priority 1986, dated 1989)",
  "tested_on": "peritoneal M.phi. from normal C3H/HeN mice",
  "test": "macrophage (M.phi.) phagocytic stimulation assay (ingestion of killed yeast cells, Zymosan)",
  "format": "cell-based",
  "excerpt": "The compounds of formula I, including the pharmaceutically acceptable esters, amides and salts, are active as immunostimulating agents. […] This assay, carried out in comparison with tuftsin, has been performed according to a modification of the method described by Bar-Shavit et al. in J.Cell.Physiol., 100, p.55 (1979). More particularly, peritoneal M.phi. from normal C3H/HeN mice are harvested by washing of the peritoneal cavity and purified by adherence as described in J.Immunol., 132, p.1987 (1984). Monolayers of 1×10^6 adherent peritoneal cells (95-98% of the monocyte-M.phi. series as judged by morphology and latex phagocytosis) are cultured for 20 h at 37° C. in RPMI-1640 medium supplemented with 50 μg/ml gentamycin, 25 mM HEPES buffer, 2 mM L-glutamine and 10% heat-inactivated fetal bovine serum (FBS). At the end of the incubation, M.phi. are washed and then exposed for 15 minutes at 37° C. to 1.3 ml/plate of culture medium either alone (blank) or containing tuftsin or a compound of the invention at different concentrations. A 1.5×10^8 cells/ml suspension of killed yeast cells (Zymosan)(0.2 ml) is then added to the plates. M.phi. are incubated for 60 minutes at 37° C., then washed, fixed (2% glutaraldehyde in PBS, 30 minutes, 4° C.) and stained. The percentage of phagocyting M.phi. and the number of ingested Zymosan cells is measured with an optical microscope equipped with a 100x immersion objective. In a representative experiment aimed at comparing the activity of tuftsin with that of the corresponding retro-inverso analogue of example 1, it has been observed that all M.phi. were capable of phagocyting zymosan in the above described conditions.\nAs the poor therapeutical applicability of tuftsin is mainly due to its low stability and to the consequent rapid loss of biological activity, the phagocytosis assay has been repeated comparing the activity of tuftsin and its retro-inverso analogue of example 1, stored for 14 days in solution at 4° C. […] At the concentration of 10^-6 M in fact the compound of Example 1 gave a number of ingested zymosan cells per 100 phagocyting macrophages of 1.8×10^3 (with an immunopotentiating effect corresponding therefore to 136% of the control).",
  "key": {"[1]": {"settings": "peptide stored for 14 days in solution at 4° C., concentration 10^-6 M"}},
  "data": [
    {"substance": "{(2RS)-2-[N-(1-amino-2-hydroxy-propyl)carbamyl]-6-amino}-hexanoyl-L-prolyl- L-arginine [Example 1]", "values": [
      {"measurement": "number of ingested yeast cells (in words)", "setting": "fresh peptide, linearly dependent on peptide concentration", "value": "significantly increased"},
      {"measurement": "ingested zymosan cells, % of the control", "setting": "peptide concentration 3×10^-7 M", "value": "170 % of the control"},
      {"measurement": "ingested zymosan cells per 100 macrophages", "setting": "peptide concentration 3×10^-7 M, 15 min exposure, then 60 min with Zymosan at 37° C.", "value": "2.2×10^3 ingested zymosan cells per 100 macrophages"},
      {"measurement": "ingested zymosan cells per 100 phagocyting macrophages", "setting": "peptide concentration 10^-6 M", "value": "2.44×10^3 ingested zymosan cells per 100 phagocyting macrophages"},
      {"measurement": "ingested zymosan cells, % of the control", "setting": "peptide concentration 10^-6 M", "value": "188 % of the control"},
      {"measurement": "phagocytosis stimulation (in words)", "setting": "peptide stored for 14 days in solution at 4° C.", "value": "still significant even if less than above"},
      {"measurement": "immunopotentiating effect, % of the control", "setting": "[1]", "value": "136 % of the control"},
      {"measurement": "ingested zymosan cells per 100 phagocyting macrophages", "setting": "[1]", "value": "1.8×10^3 ingested zymosan cells per 100 phagocyting macrophages"}
    ]}
  ]
}
